We go through three compounds from ChEMBL document CHEMBL1156451 (J Biol Chem, 2007).

≈ marks a conversion by molar mass, not a printed value. Calls of active or inactive are those of the source. Where a SMILES comes first, the peptide text is derived from it.

For series [1], the system named is Escherichia coli. Nature of the series: Effect on morphology in Escherichia coli K12 ATCC 23716 assessed as detachment of outer membrane from inner membrane at 4 uM after 30 mins by transmission electron microscopy. The format is functional, organism-based.
The subject of series [2] is HeLa. The series can be described thus: Cytotoxicity against human HeLa cells at 100 ug/ml after 24 hrs by MTT assay relative to control. The format is functional.
The test system of series [3] is Escherichia coli. The series can be described thus: Antibacterial activity against Escherichia coli K12 ATCC 23716 in 10% Luria-Bertani medium/90% Hepes buffer at pH 7.0. The format is functional.
Series [4] has as its system Bordetella bronchiseptica. Nature of the series: Antibacterial activity against Bordetella bronchiseptica CUN 11844-99 after 24 hrs in Mueller-Hinton broth medium. The format is functional.
The next series deals with Pseudomonas aeruginosa. The series can be described thus: Antibacterial activity against Pseudomonas aeruginosa CUN 4158-02 after 24 hrs in Mueller-Hinton broth medium. The format is functional.
Series [5] relates to Escherichia coli. The series can be described thus: Antibacterial activity against Escherichia coli K12 ATCC 23716 after 24 hrs in Mueller-Hinton broth medium. The format is functional. As to conditions: K12, 24 h.
The subject of a further series is Staphylococcus aureus. The series can be described thus: Antibacterial activity against methicillin-resistant Staphylococcus aureus ATCC 43300 after 24 hrs in Mueller-Hinton broth medium. The format is functional. As to conditions: ATCC 43300, 24 h.
Series [6] concerns Brucella abortus. The series can be described thus: Antibacterial activity against Brucella abortus 9.19 (per-) after 24 hrs in Mueller-Hinton broth medium. The format is functional.
Series [7] can be described thus: Toxicity in human erythrocytes assessed as hemolysis. The format is cell-based. As to conditions: erythrocyte.
Series [8] deals with HeLa. Nature of the series: Cytotoxicity against human HeLa cells at 100 ug/ml after 24 hrs by neutral red uptake assay relative to control. The format is functional.
The subject of series [9] is Brucella abortus. Nature of the series: Antibacterial activity against Brucella abortus 9.49 (per-) after 48 hrs in Mueller-Hinton broth medium. The format is functional.
Series [10] concerns Escherichia coli. Nature of the series: Effect on morphology in Escherichia coli K12 ATCC 23716 assessed as formation of high electrodense clusters at 20 uM after 30 mins by transmission electron microscopy. The format is functional, organism-based.
Series [11] has as its system Escherichia coli. Nature of the series: Antibacterial activity against Escherichia coli ATCC 25922 after 24 hrs in Mueller-Hinton broth medium. The format is functional. As to conditions: ATCC 25922, 24 h.
Another series has as its system Acinetobacter baumannii. The series can be described thus: Antibacterial activity against Acinetobacter baumannii ATCC 19606 after 24 hrs in Mueller-Hinton broth medium. As to conditions: ATCC 19606, 24 h. The format is functional.

For `CC[C@H](C)[C@H](NC(=O)[C@H](CCCNC(=N)N)NC(=O)[C@H](CCCNC(=N)N)NC(=O)[C@H](CC(C)C)NC(=O)[C@H](Cc1ccccc1)NC(=O)[C@@H](NC(=O)[C@H](CCCNC(=N)N)NC(=O)[C@H](CCSC)NC(=O)[C@@H](NC(=O)[C@H](CCCCN)NC(=O)[C@H](CCCCN)NC(=O)[C@H](CS)NC(=O)[C@@H](NC(=O)CNC(=O)[C@H](CCCNC(=N)N)NC(=O)[C@H](CC(C)C)NC(=O)[C@@H](NC(=O)[C@@H](N)CCCCN)[C@@H](C)CC)C(C)C)[C@@H](C)CC)[C@@H](C)O)C(=O)N[C@@H](CO)C(=O)N[C@@H](CCCCN)C(=O)N[C@@H](CC(=O)O)C(=O)N[C@H](C(=O)N[C@@H](CC(C)C)C(=O)N[C@H](C(=O)NCC(=O)N[C@@H](CCCCN)C(=O)N[C@@H](CCCCN)C(=O)O)[C@@H](C)O)[C@@H](C)CC` (H-KILRGVCKKIMRTFLRRISKDILTGKK-OH), the outcome in the series on Escherichia coli [1] and with Escherichia coli [10] was Active. Also, the Activity in the series on HeLa [2] is 28.7%; in series [7] it was “Toxic”; with HeLa [8], 31.6%. Moreover, the minimal bactericidal concentration (MBC) (as a rule, the lowest tested concentration that kills the bacteria rather than only halting them) was determined as 32 µg/mL (≈ 9.99 µM) in the series with Escherichia coli [3]; 4 µg/mL (≈ 1.25 µM) in [4]; 32 µg/mL (≈ 9.99 µM) with Pseudomonas aeruginosa; 0.25 µg/mL (≈ 0.078 µM) against Escherichia coli [5]; 256 µg/mL (≈ 79.9 µM) against Staphylococcus aureus; 32 µg/mL (≈ 9.99 µM) against Brucella abortus [6]. Further, the figures for the minimum bactericidal concentration (MBC) with Escherichia coli [11] and in the series with Acinetobacter baumannii were 16 µg/mL (≈ 5 µM) and 2 µg/mL (≈ 0.624 µM), respectively. For the same compound, the MIC (commonly the smallest concentration in the dilution series that meets the test's criterion for growth inhibition) stood at 16 µg/mL (≈ 5 µM) against Escherichia coli [3]; 4 µg/mL (≈ 1.25 µM) in series [4]; 32 µg/mL (≈ 9.99 µM) with Pseudomonas aeruginosa; 0.25 µg/mL (≈ 0.078 µM) in the series with Escherichia coli [5]; 256 µg/mL (≈ 79.9 µM) with Staphylococcus aureus; 32 µg/mL (≈ 9.99 µM) in the series on Brucella abortus [9]. The minimal inhibitory concentration (MIC) in the series with Escherichia coli [11] came out at 16 µg/mL (≈ 5 µM); with Acinetobacter baumannii, 2 µg/mL (≈ 0.624 µM).
`CC[C@H](C)[C@H](NC(=O)[C@H](CCCCN)NC(=O)[C@H](CCCCN)NC(=O)[C@H](CO)NC(=O)[C@@H](NC(=O)CNC(=O)[C@H](CCCNC(=N)N)NC(=O)[C@H](CC(C)C)NC(=O)[C@@H](NC(=O)[C@@H](N)CCCCN)[C@@H](C)CC)C(C)C)C(=O)N[C@@H](CCSC)C(=O)N[C@@H](CCCNC(=N)N)C(=O)N[C@H](C(=O)N[C@@H](Cc1ccccc1)C(=O)N[C@@H](CC(C)C)C(=O)N[C@@H](CCCNC(=N)N)C(=O)N[C@@H](CCCNC(=N)N)C(=O)N[C@H](C(=O)N[C@@H](CC(C)C)C(=O)N[C@H](C(=O)NCC(=O)N[C@@H](CCCCN)C(=O)N[C@@H](CCCCN)C(N)=O)[C@@H](C)O)[C@@H](C)CC)[C@@H](C)O` (H-KILRGVSKKIMRTFLRRILTGKK-NH2): the outcome in the series with HeLa [2] was inactive. Also, the minimum bactericidal concentration (MBC) with Escherichia coli [3] was determined as 25 µg/mL (≈ 9.12 µM); in [4] it was 2 µg/mL (≈ 0.729 µM); in the series with Pseudomonas aeruginosa, 4 µg/mL (≈ 1.46 µM); in the series with Escherichia coli [5], 8 µg/mL (≈ 2.92 µM); in the series with Staphylococcus aureus, 256 µg/mL (≈ 93.3 µM); against Brucella abortus [6] it was 4 µg/mL (≈ 1.46 µM). Also, the minimal bactericidal concentration (MBC) against Escherichia coli [11] and in the series with Acinetobacter baumannii was 4 µg/mL (≈ 1.46 µM) each time. Besides, the MIC amounted to 19 µg/mL (≈ 6.93 µM) with Escherichia coli [3]; 2 µg/mL (≈ 0.729 µM) in [4]; 4 µg/mL (≈ 1.46 µM) in the series with Pseudomonas aeruginosa; 8 µg/mL (≈ 2.92 µM) with Escherichia coli [5]; 64 µg/mL (≈ 23.3 µM) in the series on Staphylococcus aureus; 4 µg/mL (≈ 1.46 µM) against Brucella abortus [9]. Further, the MIC against Escherichia coli [11] and against Acinetobacter baumannii was 4 µg/mL (≈ 1.46 µM) in each case. Also, the Activity result in series [7] was “Toxic”.
In the case of `CC[C@H](C)[C@H](NC(=O)[C@H](CCCNC(=N)N)NC(=O)[C@H](CCCNC(=N)N)NC(=O)[C@H](CC(C)C)NC(=O)[C@H](Cc1ccccc1)NC(=O)[C@@H](NC(=O)[C@H](CCCNC(=N)N)NC(=O)[C@H](CCSC)NC(=O)[C@@H](NC(=O)[C@H](CCCCN)NC(=O)[C@H](CCCCN)NC(=O)[C@H](CO)NC(=O)[C@@H](NC(=O)CNC(=O)[C@H](CCCNC(=N)N)NC(=O)[C@H](CC(C)C)NC(=O)[C@@H](NC(=O)[C@@H](N)CCCCN)[C@@H](C)CC)C(C)C)[C@@H](C)CC)[C@@H](C)O)C(=O)N[C@@H](CO)C(=O)N[C@@H](CCCCN)C(=O)N[C@@H](CC(=O)O)C(=O)N[C@H](C(=O)N[C@@H](CC(C)C)C(=O)N[C@H](C(=O)NCC(=O)N[C@@H](CCCCN)C(=O)N[C@@H](CCCCN)C(N)=O)[C@@H](C)O)[C@@H](C)CC` (H-KILRGVSKKIMRTFLRRISKDILTGKK-NH2), the Activity in the series on HeLa [2] was 38.4%; in series [7] it was “Toxic”; in the series with HeLa [8], 24.8%. Moreover, the minimum bactericidal concentration (MBC) against Escherichia coli [3] is 16 µg/mL (≈ 5.02 µM); in [4], 4 µg/mL (≈ 1.26 µM); with Pseudomonas aeruginosa, 4 µg/mL (≈ 1.26 µM); against Escherichia coli [5] it was 2 µg/mL (≈ 0.628 µM); against Staphylococcus aureus, 128 µg/mL (≈ 40.2 µM); against Brucella abortus [6], 4 µg/mL (≈ 1.26 µM). The minimal bactericidal concentration (MBC) came to 4 µg/mL (≈ 1.26 µM) against Escherichia coli [11] and 2 µg/mL (≈ 0.628 µM) with Acinetobacter baumannii. Besides, the MIC stood at 8 µg/mL (≈ 2.51 µM) against Escherichia coli [3]; 4 µg/mL (≈ 1.26 µM) in series [4]; 4 µg/mL (≈ 1.26 µM) with Pseudomonas aeruginosa; 2 µg/mL (≈ 0.628 µM) against Escherichia coli [5]; 128 µg/mL (≈ 40.2 µM) with Staphylococcus aureus; 2 µg/mL (≈ 0.628 µM) against Brucella abortus [9]. Besides, the minimal inhibitory concentration (MIC) stood at 4 µg/mL (≈ 1.26 µM) in the series with Escherichia coli [11] and 2 µg/mL (≈ 0.628 µM) with Acinetobacter baumannii.
